The record followed here is patent publication US20190071416A1, “COMPOUNDS FOR TREATMENT OF CANCER AND EPIGENETICS” (Agency For Science, Technology and Research, priority 2015, published 2019).

Structures are written as SMILES.

The assay concerns the target T1, SMYD3 (Homo sapiens, UniProt Q9H7B4).
T1 sequence (Q9H7B4 1-428): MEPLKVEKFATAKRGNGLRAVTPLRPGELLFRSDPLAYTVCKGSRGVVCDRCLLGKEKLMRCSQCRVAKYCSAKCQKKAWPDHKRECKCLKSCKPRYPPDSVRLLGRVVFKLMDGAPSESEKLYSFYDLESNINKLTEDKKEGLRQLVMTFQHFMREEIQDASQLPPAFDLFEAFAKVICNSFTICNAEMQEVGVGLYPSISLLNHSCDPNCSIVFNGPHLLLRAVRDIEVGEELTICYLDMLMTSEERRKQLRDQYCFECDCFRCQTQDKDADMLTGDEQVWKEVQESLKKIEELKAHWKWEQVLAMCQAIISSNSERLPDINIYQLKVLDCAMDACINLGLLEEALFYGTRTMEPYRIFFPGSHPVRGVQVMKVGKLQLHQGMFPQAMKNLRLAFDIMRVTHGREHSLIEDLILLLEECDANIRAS
The assay is described as follows: SMYD3 biochemical assay (MTase-Glo, MAP3K2 peptide substrate). Particulars: Table 3; MTase assay, MAP3K2 peptide substrate; read-out: IC50. The method, then:
A SMYD3 enzymatic assay was developed using Promega's Methyltransferase-Glo™ reagents. In the assay, SMYD3 catalyzes the methylation of the MAP3K2 peptide substrate by transferring a methyl group from SAM to MAP3K2 peptide and further converts the SAM to SAH. The SMYD3 methyltransferase activity is measured based on the amount of SAH produced from the reaction through the use of coupling enzymes that convert the SAH to ATP. The MTase-Glo detection solution then catalyzes the formation of light from ATP.
A final concentration of 1.0 μM and 10 μM SAM and MAP3K2 peptide were added and further incubated for 30 min at room temperature before adding the MTase Glo and detection reagent. Reaction signals were detected using microplate readers on luminescent mode (Safire Tecan). The IC50 was determined by non-linear regression, using GraphPad Prism version, 5.03.
In the case of `CCCOC(=O)N1CCN(C(=O)c2ccc3c(Cl)c4c(nc3c2)CCCC4)C(C)C1` (stereo not shown) [A031, Propyl 4-(9-chloro-5,6,7,8-tetrahydroacridine-3-carbonyl)-3-methylpiperazine-1-carboxylate], the IC50 (as a rule, the concentration that gives 50% inhibition) amounted to 150 nM.

For `CCCOC(=O)N1CCN(C(=O)c2ccc3c(Cl)c4c(nc3c2)CCCC4)CC1CO` (stereo not shown) [A032, Propyl 4-(9-chloro-5,6,7,8-tetrahydroacridine-3-carbonyl)-2-(hydroxymethyl)piperazine-1-carboxylate], the IC50 is 1200 nM.

On to `CCCOC(=O)N1CCN(C(=O)c2ccc3c(Cl)c4c(nc3c2)CCCC4)C(C)C1C` (stereo not shown) [A033, Propyl 4-(9-chloro-5,6,7,8-tetrahydroacridine-3-carbonyl)-2,3-dimethylpiperazine-1-carboxylate], for which the half-inhibitory concentration (IC50) is 1800 nM.

Regarding `CCCOC(=O)N1CCN(C(=O)c2ccc3c(Cl)c4c(nc3c2)CCC(CC(=O)OC)C4)CC1` (stereo not shown) [A034, Propyl 4-(9-chloro-7-(2-methoxy-2-oxoethyl)-5,6,7,8-tetrahydroacridine-3-carbonyl)piperazine-1-carboxylate], the IC50 came to 380 nM.

For the molecule `CCCOC(=O)N1CCN(C(=O)c2ccc3c(Cl)c4c(nc3c2)CCCC4)CC1(C)C` [A035, Propyl 4-(9-chloro-5,6,7,8-tetrahydroacridine-3-carbonyl)-2,2-dimethylpiperazine-1-carboxylate], the IC50 came to 8200 nM.

Take `CCCOC(=O)N1CCN(C(=O)c2ccc3c(Cl)c4c(nc3c2)CCCC4)CC12CC2` [A036, Propyl 7-(9-chloro-5,6,7,8-tetrahydroacridine-3-carbonyl)-4,7-diazaspiro[2.5]octane-4-carboxylate]: the half-maximal inhibitory concentration (IC50) turned out to be 6700 nM.

`CCCOC(=O)N1CCN(C(=O)c2ccc3c(Cl)c4c(nc3c2)CCCC4)C2(CC2)C1` [A037, Propyl 4-(9-chloro-5,6,7,8-tetrahydroacridine-3-carbonyl)-4,7-diazaspiro[2.5]octane-7-carboxylate]: the IC50 was 8400 nM.

As to `CCCCOC(=O)N1CCN(C(=O)c2ccc3c(Cl)c4c(nc3c2)CCCC4)CC1` [A038, Butyl 4-(9-chloro-5,6,7,8-tetrahydroacridine-3-carbonyl)piperazine-1-carboxylate], the half-inhibitory concentration (IC50) was 420 nM.

For `Cc1cc(C(=O)N2C3CCCC2CN(C(=O)c2ccc4c(Cl)c5c(nc4c2)CCCC5)C3)no1` [A039, (9-Chloro-5,6,7,8-tetrahydroacridin-3-yl)(9-(5-methylisoxazole-3-carbonyl)-3,9-diazabicyclo[3.3.1]nonan-3-yl)methanone], the IC50 is 1300 nM.

With `Cc1cc(C(=O)N2C3CCCC2CN(C(=O)c2ccc4c(Cl)c5c(nc4c2)CCCC5)C3)n[nH]1` [A040, (9-Chloro-5,6,7,8-tetrahydroacridin-3-yl)(9-(5-methyl-1H-pyrazole-3-carbonyl)-3,9-diazabicyclo[3.3.1]nonan-3-yl)methanone], the concentration for half-maximal inhibition (IC50) stood at 10900 nM.

On to `CCCCOC(=O)N1C2CCCC1CN(C(=O)c1ccc3c(Cl)c4c(nc3c1)CCCC4)C2` [A041, Butyl 3-(9-chloro-5,6,7,8-tetrahydroacridine-3-carbonyl)-3,9-diazabicyclo[3.3.1]nonane-9-carboxylate], for which the half-maximal inhibitory concentration (IC50) came out at 260 nM.

`CCCOC(=O)N1CCN(C(=O)c2ccc3c(Cl)c4c(nc3c2)CCCC4)CC1C(=O)OC` (stereo not shown) [A042, 2-Methyl 1-propyl 4-(9-chloro-5,6,7,8-tetrahydroacridine-3-carbonyl)piperazine-1,2-dicarboxylate]: the 50% inhibitory concentration (IC50) is 5200 nM.

In the case of `CCCOC(=O)N1CC(C)N(C(=O)c2ccc3c(Cl)c4c(nc3c2)CCCC4)C(C)C1` (stereo not shown) [A043, Propyl 4-(9-chloro-5,6,7,8-tetrahydroacridine-3-carbonyl)-3,5-dimethylpiperazine-1-carboxylate], the concentration for half-maximal inhibition (IC50) turned out to be 550 nM.

On to `CCCOC(=O)N1CCN(C(=O)c2ccc3c(Cl)c4c(nc3c2)CC(C(=O)OC)CC4)CC1` (stereo not shown) [A044, Methyl 9-chloro-6-(4-(propoxycarbonyl)piperazine-1-carbonyl)-1,2,3,4-tetrahydroacridine-3-carboxylate], for which the 50% inhibitory concentration (IC50) came to 620 nM.

For the molecule `CCCOC(=O)N1CCN(C(=O)c2ccc3c(Cl)c4c(nc3c2)CCC(CN)C4)CC1` (stereo not shown) [A045, Propyl 4-(7-(aminomethyl)-9-chloro-5,6,7,8-tetrahydroacridine-3-carbonyl)piperazine-1-carboxylate], the IC50 was 1200 nM.

For the molecule `CCCOC(=O)N1CCN(C(=O)c2ccc3c(Cl)c4c(nc3c2)CCC(C#N)C4)CC1` (stereo not shown) [A046, Propyl 4-(9-chloro-7-cyano-5,6,7,8-tetrahydroacridine-3-carbonyl)piperazine-1-carboxylate], the concentration for half-maximal inhibition (IC50) worked out at 800 nM.

`C=CCC1CCc2c(nc3cc(C(=O)N4CCN(C(=O)OCCC)CC4)ccc3c2Cl)C1` (stereo not shown) [A047, Propyl 4-(6-allyl-9-chloro-5,6,7,8-tetrahydroacridine-3-carbonyl)piperazine-1-carboxylate]: the 50% inhibitory concentration (IC50) is 600 nM.

In the case of `CCCOC(=O)N1CCN(C(=O)c2ccc3c(Cl)c4c(nc3c2)CCCC4)CC1C(=O)NC` (stereo not shown) [A048, Propyl 4-(9-chloro-5,6,7,8-tetrahydroacridine-3-carbonyl)-2-(methylcarbamoyl)piperazine-1-carboxylate], the concentration for half-maximal inhibition (IC50) worked out at 6100 nM.

As for `CCCNC(=O)N1CCN(C(=O)c2ccc3c(Cl)c4c(nc3c2)CCCC4)CC1` [A049, 4-(9-Chloro-5,6,7,8-tetrahydroacridine-3-carbonyl)-N-propylpiperazine-1-carboxamide], the IC50 was 6400 nM.

Consider `C=CCCC(=O)N1CCN(C(=O)c2ccc3c(Cl)c4c(nc3c2)CCCC4)CC1` [A050, 1-(4-(9-Chloro-5,6,7,8-tetrahydroacridine-3-carbonyl)piperazin-1-yl)pent-4-en-1-one], for which the IC50 was found to be 3500 nM.

Regarding `CCCOC(=O)N1CCN(C(=O)c2ccc3c(Cl)c4c(nc3c2)CCCC4)C(C(=O)OC)C1` (stereo not shown) [A051, 3-Methyl 1-propyl 4-(9-chloro-5,6,7,8-tetrahydroacridine-3-carbonyl)piperazine-1,3-dicarboxylate], the IC50 worked out at 650 nM.

On to `CCCOC(=O)N1CCN(C(=O)c2ccc3c(Cl)c4c(nc3c2)CCCC4)CC1COC(C)=O` (stereo not shown) [A052, Propyl 2-(acetoxymethyl)-4-(9-chloro-5,6,7,8-tetrahydroacridine-3-carbonyl)piperazine-1-carboxylate], for which the IC50 worked out at 1800 nM.

In the case of `CCCOC(=O)N1CCN(C(=O)c2ccc3c(Cl)c4c(nc3c2)CC(c2ccccn2)CC4)CC1` (stereo not shown) [A053, Propyl 4-(9-chloro-6-(pyridin-2-yl)-5,6,7,8-tetrahydroacridine-3-carbonyl)piperazine-1-carboxylate], the half-inhibitory concentration (IC50) came out at 240 nM.

Take `CCCOC(=O)N1CCN(C(=O)c2ccc3c(Cl)c4c(nc3c2)CCCC4)CC1COC(=O)C(C)C` (stereo not shown) [A054, Propyl 4-(9-chloro-5,6,7,8-tetrahydroacridine-3-carbonyl)-2-((isobutyryloxy)methyl)piperazine-1-carboxylate]: the 50% inhibitory concentration (IC50) came to 5200 nM.

On to `CCCOC(=O)N1CCN(C(=O)c2ccc3c(Cl)c4c(nc3c2)CCCC4)CC1COC(=O)CCOC` (stereo not shown) [A055, Propyl 4-(9-chloro-5,6,7,8-tetrahydroacridine-3-carbonyl)-2-(((3-methoxypropanoyl)oxy)methyl)-piperazine-1-carboxylate], for which the IC50 came out at 2400 nM.

As to `CCCOC(=O)N1CCN(C(=O)c2ccc3c(Cl)c4c(nc3c2)CCCC4)CC1C(N)=O` (stereo not shown) [A056, Propyl 2-carbamoyl-4-(9-chloro-5,6,7,8-tetrahydroacridine-3-carbonyl)piperazine-1-carboxylate], the half-maximal inhibitory concentration (IC50) was found to be 1700 nM.

As for `CCCOC(=O)N1CCN(C(=O)c2ccc3c(Cl)c4c(nc3c2)CC(c2cncnc2)CC4)CC1` (stereo not shown) [A057, Propyl 4-(9-chloro-6-(pyrimidin-5-yl)-5,6,7,8-tetrahydroacridine-3-carbonyl)piperazine-1-carboxylate], the half-maximal inhibitory concentration (IC50) is 310 nM.

Take `CCCOC(=O)N1CCN(C(=O)c2ccc3c(Cl)c4c(nc3c2)CC(c2ccncc2)CC4)CC1` (stereo not shown) [A058, Propyl 4-(9-chloro-6-(pyridin-4-yl)-5,6,7,8-tetrahydroacridine-3-carbonyl)piperazine-1-carboxylate]: the IC50 was found to be 190 nM.

In the case of `CCCOC(=O)N1CCN(C(=O)c2ccc3c(Cl)c4c(nc3c2)CCCC4)C(C(N)=O)C1` (stereo not shown) [A059, Propyl 3-carbamoyl-4-(9-chloro-5,6,7,8-tetrahydroacridine-3-carbonyl)piperazine-1-carboxylate], the IC50 was 2300 nM.

On to `CCCOC(=O)N1CCN(C(=O)c2ccc3c(Cl)c4c(nc3c2)CCCC4)CC1CCO` (stereo not shown) [A060, Propyl 4-(9-chloro-5,6,7,8-tetrahydroacridine-3-carbonyl)-2-(2-hydroxyethyl)piperazine-1-carboxylate], for which the concentration for half-maximal inhibition (IC50) was 2700 nM.

As for `CCCOC(=O)N1CCN(C(=O)c2ccc3c(Cl)c4c(nc3c2)CCCC4)CC1COC(=O)CCC` (stereo not shown) [A061, Propyl 2-((butyryloxy)methyl)-4-(9-chloro-5,6,7,8-tetrahydroacridine-3-carbonyl)piperazine-1-carboxylate], the IC50 came to 4100 nM.
